From ChEMBL document CHEMBL3885861, “Open TG-GATES”

Species: Rattus norvegicus
Assay: Open TG-GATES - Regimen: Daily Repeat
Type: toxicity, organism-based, Sprague-Dawley
Parameters: regimen Daily Repeat, gender Male, age 6 weeks
Conditions: in vivo, po, route gavage; for Bas / Eos / Fbg / Hb / Ht / Lym / MCHC / Mono / Neu / Plat / RBC / Ret / WBC / PT / MCV: tissue Blood; for KIDNEY_L / KIDNEY_R / KIDNEY_TOTAL: tissue Kidney; for LIVER: tissue Liver; for ALP / ALT / AST / CRE / DBIL / IP / K / LDH / Na / PL / RALB / TBIL / TC / TG / TP / gamma-GTP / BUN / Ca: tissue Plasma
[1] = 0 mg/kg, 72 h, dose level Control, time 3 day
[2] = 0 mg/kg, […], dose level Control, time 7 day
[3] = 0 mg/kg, […], dose level Control, time 14 day
[4] = 0 mg/kg, […], dose level Control, time 28 day
[5] = 40 mg/kg, 72 h, dose level Low, time 3 day
[6] = 40 mg/kg, […], dose level Low, time 7 day
[7] = 40 mg/kg, […], dose level Low, time 14 day
[8] = 40 mg/kg, […], dose level Low, time 28 day
[9] = 120 mg/kg, 72 h, dose level Middle, time 3 day

CCC(C)(C)C(=O)O[C@H]1C[C@@H](C)C=C2C=C[C@H](C)[C@H](CC[C@@H]3C[C@@H](O)CC(=O)O3)[C@H]21 [SIMVASTATIN]
TERMINAL_BW [1]: 222.3 g | Bas [1]: 0% | Eos [1]: 1% | Fbg [1]: 227 mg/dL | Hb [1]: 13.3 g/dL | Ht [1]: 40% | Lym [1]: 78.8% | MCHC [1]: 33.1% | Mono [1]: 8.8% | Neu [1]: 11.8% | Plat [1]: 121.1 x10_4/uL | RBC [1]: 621.6 x10_4/ul | Ret [1]: 6.5% | WBC [1]: 98.2 x10_2/uL | KIDNEY_L [1]: 1 g | KIDNEY_R [1]: 1 g | KIDNEY_TOTAL [1]: 2 g | LIVER [1]: 11 g | ALP [1]: 820.2 IU/L | ALT [1]: 36.6 IU/L | AST [1]: 58.8 IU/L | CRE [1]: 0.6 mg/dL | DBIL [1]: 0.004 mg/dL | IP [1]: 7.8 mg/dL | K [1]: 4.6 meq/L | LDH [1]: 81 IU/L | Na [1]: 140.2 meq/L | PL [1]: 143.4 mg/dL | RALB [1]: 3.8 g/dL | TBIL [1]: 0.3 mg/dL | TC [1]: 82.2 mg/dL | TG [1]: 75.6 mg/dL | TP [1]: 5.6 g/dL | gamma-GTP [1]: 1.8 IU/L | TERMINAL_BW [2]: 253.4 g | TERMINAL_BW [3]: 301 g | TERMINAL_BW [4]: 380.8 g | Bas [2]: 0% | Eos [2]: 0.8% | Fbg [2]: 217.4 mg/dL | Hb [2]: 12.8 g/dL | Ht [2]: 38.8% | Lym [2]: 78.6% | MCHC [2]: 33% | Mono [2]: 8.8% | Neu [2]: 12% | PT [2]: 10.9 s | Plat [2]: 115.6 x10_4/uL | RBC [2]: 606.2 x10_4/ul | Ret [2]: 3.8% | WBC [2]: 108.7 x10_2/uL | Bas [3]: 0% | Eos [3]: 1% | Fbg [3]: 222.4 mg/dL | Hb [3]: 13.9 g/dL | Ht [3]: 41.7% | Lym [3]: 78.4% | MCHC [3]: 33.2% | Mono [3]: 7% | Neu [3]: 13.8% | Plat [3]: 123.4 x10_4/uL | RBC [3]: 674.8 x10_4/ul | Ret [3]: 6.2% | WBC [3]: 122.2 x10_2/uL | Bas [4]: 0% | Eos [4]: 1% | Fbg [4]: 227.8 mg/dL | Hb [4]: 14.5 g/dL | Ht [4]: 43.6% | Lym [4]: 85.6% | MCHC [4]: 33.3% | MCV [4]: 57.8 fL | Mono [4]: 4.8% | Neu [4]: 8.6% | PT [4]: 11.7 s | Plat [4]: 120.4 x10_4/uL | RBC [4]: 753.6 x10_4/ul | Ret [4]: 3% | WBC [4]: 132.7 x10_2/uL | KIDNEY_L [2]: 1.1 g | KIDNEY_R [2]: 1.1 g | KIDNEY_TOTAL [2]: 2.2 g | KIDNEY_L [3]: 1.2 g | KIDNEY_R [3]: 1.3 g | KIDNEY_TOTAL [3]: 2.5 g | KIDNEY_L [4]: 1.4 g | KIDNEY_R [4]: 1.4 g | KIDNEY_TOTAL [4]: 2.8 g | LIVER [2]: 12.2 g | LIVER [3]: 14 g | LIVER [4]: 15.9 g | ALP [2]: 953 IU/L | ALT [2]: 34.4 IU/L | AST [2]: 63.4 IU/L | CRE [2]: 0.7 mg/dL | DBIL [2]: 0.012 mg/dL | IP [2]: 7.1 mg/dL | K [2]: 4.7 meq/L | LDH [2]: 81.6 IU/L | Na [2]: 142.4 meq/L | PL [2]: 152.4 mg/dL | RALB [2]: 3.8 g/dL | TBIL [2]: 0.3 mg/dL | TC [2]: 78.6 mg/dL | TP [2]: 5.7 g/dL | gamma-GTP [2]: 1.2 IU/L | ALP [3]: 777.2 IU/L | ALT [3]: 34.6 IU/L | AST [3]: 64.2 IU/L | BUN [3]: 20.6 mg/dL | CRE [3]: 0.6 mg/dL | DBIL [3]: 0.016 mg/dL | IP [3]: 7 mg/dL | K [3]: 4.5 meq/L | LDH [3]: 74.6 IU/L | Na [3]: 140.6 meq/L | PL [3]: 154.4 mg/dL | RALB [3]: 3.8 g/dL | TBIL [3]: 0.3 mg/dL | TC [3]: 73.6 mg/dL | TG [3]: 115.8 mg/dL | TP [3]: 5.9 g/dL | gamma-GTP [3]: 1.4 IU/L | ALP [4]: 672 IU/L | ALT [4]: 31.8 IU/L | AST [4]: 57.6 IU/L | BUN [4]: 20 mg/dL | CRE [4]: 0.7 mg/dL | DBIL [4]: 0.016 mg/dL | IP [4]: 5.9 mg/dL | K [4]: 4.3 meq/L | LDH [4]: 76.6 IU/L | Na [4]: 142.6 meq/L | PL [4]: 147.8 mg/dL | RALB [4]: 3.9 g/dL | TBIL [4]: 0.3 mg/dL | TC [4]: 66 mg/dL | TG [4]: 151.4 mg/dL | TP [4]: 6.1 g/dL | gamma-GTP [4]: 1.6 IU/L | TERMINAL_BW [5]: 221.3 g | Bas [5]: 0% | Eos [5]: 1% | Fbg [5]: 222.8 mg/dL | Hb [5]: 13.6 g/dL | Ht [5]: 41.1% | Lym [5]: 77% | MCHC [5]: 33.2% | Mono [5]: 8.6% | Neu [5]: 13.6% | Plat [5]: 125.7 x10_4/uL | RBC [5]: 639.6 x10_4/ul | Ret [5]: 5.1% | WBC [5]: 97.1 x10_2/uL | KIDNEY_L [5]: 0.9 g | KIDNEY_R [5]: 1 g | KIDNEY_TOTAL [5]: 1.9 g | ALP [5]: 959.2 IU/L | ALT [5]: 40.6 IU/L | AST [5]: 67 IU/L | BUN [5]: 18 mg/dL | CRE [5]: 0.5 mg/dL | DBIL [5]: 0.004 mg/dL | IP [5]: 7.1 mg/dL | K [5]: 4.4 meq/L | LDH [5]: 102.4 IU/L | Na [5]: 140 meq/L | PL [5]: 148.4 mg/dL | RALB [5]: 3.8 g/dL | TBIL [5]: 0.3 mg/dL | TC [5]: 88.2 mg/dL | TG [5]: 69.6 mg/dL | TP [5]: 5.6 g/dL | gamma-GTP [5]: 1.8 IU/L | TERMINAL_BW [6]: 254.5 g | TERMINAL_BW [7]: 301.6 g | TERMINAL_BW [8]: 380.4 g | Bas [6]: 0% | Eos [6]: 0.6% | Fbg [6]: 232.4 mg/dL | Hb [6]: 13.3 g/dL | Ht [6]: 39.9% | Lym [6]: 83% | MCHC [6]: 33.2% | Mono [6]: 6% | PT [6]: 11 s | Plat [6]: 120.4 x10_4/uL | RBC [6]: 619.6 x10_4/ul | Ret [6]: 4.2% | WBC [6]: 123 x10_2/uL | Bas [7]: 0% | Eos [7]: 0.6% | Fbg [7]: 219.4 mg/dL | Hb [7]: 13.9 g/dL | Ht [7]: 41.7% | Lym [7]: 81.6% | MCHC [7]: 33.3% | Mono [7]: 5.6% | Neu [7]: 12.4% | Plat [7]: 119.7 x10_4/uL | RBC [7]: 675.8 x10_4/ul | Ret [7]: 5.3% | WBC [7]: 121.7 x10_2/uL | Bas [8]: 0% | Eos [8]: 1.2% | Fbg [8]: 244.4 mg/dL | Hb [8]: 14.8 g/dL | Ht [8]: 44.7% | Lym [8]: 81% | MCHC [8]: 33% | MCV [8]: 58.3 fL | Mono [8]: 6.4% | Neu [8]: 11.6% | Plat [8]: 111 x10_4/uL | RBC [8]: 766.6 x10_4/ul | Ret [8]: 2.3% | WBC [8]: 112.3 x10_2/uL | KIDNEY_L [6]: 1.1 g | KIDNEY_R [6]: 1.1 g | KIDNEY_TOTAL [6]: 2.2 g | KIDNEY_L [7]: 1.2 g | KIDNEY_R [7]: 1.2 g | KIDNEY_TOTAL [7]: 2.4 g | KIDNEY_L [8]: 1.4 g | KIDNEY_R [8]: 1.4 g | KIDNEY_TOTAL [8]: 2.8 g | LIVER [6]: 12.5 g | LIVER [7]: 13.6 g | LIVER [8]: 16.5 g | ALP [6]: 877.6 IU/L | ALT [6]: 38.4 IU/L | AST [6]: 60.8 IU/L | BUN [6]: 20.6 mg/dL | CRE [6]: 0.6 mg/dL | Ca [6]: 11 mg/dL | DBIL [6]: 0 mg/dL | IP [6]: 6.9 mg/dL | K [6]: 4.9 meq/L | LDH [6]: 112.2 IU/L | Na [6]: 141.4 meq/L | PL [6]: 155 mg/dL | RALB [6]: 3.8 g/dL | TBIL [6]: 0.3 mg/dL | TG [6]: 99.2 mg/dL | TP [6]: 5.9 g/dL | gamma-GTP [6]: 1.8 IU/L | ALP [7]: 819.8 IU/L | ALT [7]: 37 IU/L | AST [7]: 61.4 IU/L | BUN [7]: 20 mg/dL | CRE [7]: 0.6 mg/dL | Ca [7]: 10.8 mg/dL | DBIL [7]: 0.006 mg/dL | IP [7]: 7.1 mg/dL | K [7]: 4.7 meq/L | LDH [7]: 82 IU/L | Na [7]: 140.8 meq/L | PL [7]: 145.6 mg/dL | RALB [7]: 3.9 g/dL | TBIL [7]: 0.3 mg/dL | TC [7]: 76.6 mg/dL | TG [7]: 118.4 mg/dL | TP [7]: 5.9 g/dL | gamma-GTP [7]: 1.8 IU/L | ALP [8]: 751.6 IU/L | ALT [8]: 34.2 IU/L | AST [8]: 60.4 IU/L | BUN [8]: 20.6 mg/dL | CRE [8]: 0.7 mg/dL | DBIL [8]: 0.024 mg/dL | IP [8]: 6.8 mg/dL | K [8]: 4.3 meq/L | LDH [8]: 113.6 IU/L | Na [8]: 143.2 meq/L | PL [8]: 163 mg/dL | RALB [8]: 4 g/dL | TBIL [8]: 0.3 mg/dL | TC [8]: 78.2 mg/dL | TG [8]: 165.2 mg/dL | TP [8]: 6.2 g/dL | gamma-GTP [8]: 1.4 IU/L | TERMINAL_BW [9]: 215.2 g | Bas [9]: 0% | Eos [9]: 1% | Fbg [9]: 217.2 mg/dL | Hb [9]: 13.6 g/dL
